Experimental data published in PubChem BioAssay AID179 (DTP/NCI, 2004).
The source made the active and inactive calls.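 How the source made its calls: active means compounds giving half or more protection of infected cells from virus-caused growth loss, again on retest; inactive means the rest.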 Where a SMILES comes first, the peptide text is derived from it. The star is where a group is joined. Cbz = O=C(OCc1ccccc1)*

Test system: CEM cells HIV-1 protection, formazan growth assay
Assay: NCI AIDS Antiviral Assay
Conditions: for IC50: measured here: growth of uninfected CEM cells
Procedure, shortened: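 CEM (human) cells, HIV-1 infected vs uninfected, 5-point dosing, formazan growth read-out. Retest threshold 50% protection.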

Row | Compound | EC50 [µM] | IC50 [µM] | outcome
1 | O=C(NNc1ccccc1)NNc1ccccc1 (tested in a mixture with another compound) | > 200 | 31.6 | 
2 | COC(=O)C1(SC)C2CCC3C2CCC31 (stereo unspecified) | > 200 | > 200 | 
3 | CC(=O)c1cccc(NC2C(N)C(NC(=O)N(C)C)(C(C)O)C(C)(O)C2(O)COC(=O)c2c(C)cccc2O)c1 (stereo unspecified) | > 64.6 | 0.0427 | 
4 | CC[N+](CC)(CCNCC(N)=O)CC(N)=O | > 200 | > 200 | 
5 | CC12CCC3=C(CSC4=C3CSc3ccccc34)C1=CCCC2=O (stereo unspecified) | > 200 | > 200 | 
6 | O=C1C=C[C@@]23C=Cc4ccccc4C2CC(O)C1C3 (stereo partly specified) | > 245 | 135 | 
7 | COc1c(O)c2c(=O)cc(OC)c3c4c(OC)cc(=O)c5c(O)c(OC)c6c(c(c1C(C(C)O)C6C(C)O)c23)c54 (stereo unspecified) | > 2 | 0.339 | 
8 | COc1cccc(C=C2C(=O)OC(C)(C)OC2=O)c1 |  |  | inactive
9 | FC(F)C(F)(F)N1c2ccccc2Sc2ccccc21 | > 200 | 72.4 | 
10 | O=S(Nc1ccccc1)c1ccc(Cl)c(Cl)c1 (stereo unspecified) | > 200 | > 200 | 
11 | NC(CCCCP(=O)(O)O)C(=O)O (stereo unspecified) | > 200 | > 200 | 
12 | CCOCC(C)(CO)CC(C)CO (stereo unspecified) | > 200 | > 200 | 
13 | CCCN=Cc1c(O)c(O)c(C(C)C)c2cc(C)c(-c3c(C)cc4c(C(C)C)c(O)c(O)c(C=NCCC)c4c3O)c(O)c12 | > 6.31 | 1.15 | 
14 | CCC[CH2][Sn]([CH2]CCC)([O]C(=O)C(N)CSC)[O]C(=O)C(N)CSC (stereo unspecified) | > 18.6 | 0.129 | 
15 | COc1ccc2c(ccc3[nH]c4c(C)cnc(NCCCN(C)C)c4c32)c1 | > 2 | 0.132 | 
16 | COc1nc2ncc([C@@H](OC(C)=O)[C@@H](COC(C)=O)OC(C)=O)nc2c(=O)[nH]1 | > 200 | > 200 | 
17 | CCOC(=O)CCC(NC(=O)C(Cc1ccccc1)NC(=O)OCc1ccccc1)C(=O)OCC (stereo not drawn) (Cbz-Phe-Glu(OEt)-OEt; configuration not given here) | > 200 | 9.55 | 
18 | CNC1=C(C)C(=O)C(=O)C([C@H](C)CCC=C(C)C)=C1O | > 200 | 6.17 | 
19 | C=CCNC(=S)/N=C/C(C(=O)Nc1ccccc1OC)=C(\C)O |  |  | inactive
20 | CC1COC(c2cn[nH]c2C(N)=O)C1O (stereo unspecified) | > 200 | > 200 | 
21 | CCOC1(NC(=O)N(C)C)C2CCCC21 (stereo unspecified) | > 200 | > 200 | 

Row | Compound | EC50 [µM] | IC50 [µM] | outcome
22 | O=C(OC1C=C=CS(=O)(=O)CC#C/C=C\1)c1cnc2ccccc2n1 (stereo unspecified) | > 200 | 102 | 
23 | CC(=O)NNc1nc(C)c(C(=O)NNC(=O)C(=O)Nc2c([N+](=O)[O-])ccc(C)c2C)s1 | > 209 | 107 | 
24 | COc1ccc(S(=O)(=O)N(C)c2ccccc2)cc1 | > 200 | 7.76 | 
25 | COc1cc(OC)c(/C=C\c2ccnc3ccccc23)c(OC)c1 | > 200 | 8.51 | 
26 | Cc1nn(C2OC(CO)C(O)C(F)C2O)c(=O)[nH]c1=O (stereo unspecified) | > 200 | > 200 | 
27 | Cc1cccc(NC(=O)/C(=N\N)C(c2cnc3ccc([N+](=O)[O-])cc3n2)[N+](=O)[O-])c1C (stereo unspecified) | > 85.1 | 66.1 | 
28 | CC1=CC(O)C(Br)C(C)(C)C12CCC(C)(Cl)C(Br)C2 (stereo unspecified) | > 200 | 25.1 | 
29 | CCOC(=O)C1CSC(=N)N1C(C)=O (stereo unspecified) | 115 | 123 | 
30 | CCCCCCCC/C=C\CCCCCCCCN=Cc1c(O)c(O)c(C(C)C)c2cc(C)c(-c3c(C)cc4c(C(C)C)c(O)c(O)c(C=NCCCCCCCC/C=C\CCCCCCCC)c4c3O)c(O)c12 |  |  | inactive
31 | CCCCOC(=O)C(=O)/C(=C\n1c(=S)[nH]c2cc(C)ccc21)C(=O)C=C(C)C | > 200 | > 200 | 
32 | CN(/N=C/c1ccc(Cl)cc1)C1=NCCCCN1 | > 200 | 87.1 | 
33 | CCOC(OCC)[C@H](N)[C@@H](O)[C@@H](O)[C@H]1COC(C)(C)O1 | > 200 | > 200 | 
34 | c1ccc2c(c1)c1ccccc1c1nc3c(nc21)CCCC3 | > 200 | > 200 | 
35 | CC1CC2OC(=O)C3CCCC(=C23)[C@@]12C[C@@H](c1ccoc1)OC2=O (stereo partly specified) | > 550 | 269 | 
36 | CC(=O)Nc1cc2c3c(c1)CCCN3CCC2 | > 200 | 39.8 | 
37 | Cc1cc2c(c3ncccc13)OCN(Cc1ccc(Cl)cc1)C2 | > 200 | 1.07 | 
38 | CCOC(=O)/C(=C\c1ccc(OCc2ccccc2)c(OC)c1)C(=O)c1ccccc1 | > 12.6 | > 12.6 | 
39 | Cc1nnc(NC2=NCCO2)s1 | > 200 | > 200 | 
40 | CCOC(=O)c1cn(C)c(=S)n2c1nc1ccccc12 | > 200 | > 200 | 
41 | COc1ccc(C[C@H]2COC(=O)[C@@H]2Cc2ccc(OC)c(OC)c2)cc1OC | > 200 | 123 | 
42 | c1ccc(-c2sc(-c3ccccc3)c3c2[C@H](c2ccccc2)S[C@H]3c2ccccc2)cc1 |  |  | inactive

Row | Compound | EC50 [µM] | IC50 [µM] | outcome
43 | C[C@]12C=CC(=O)C=C1CC[C@@H]1[C@@H]2CC[C@]2(C)OC(=O)CC[C@@H]12 | > 832 | 224 | 
44 | CC(=O)/C(=C/c1ccc(-c2ccccc2)cc1)C(=O)c1ccccc1 | 1.58 | 15.8 | 
45 | Clc1cnnc2nc[nH]c12 | > 1150 | 135 | 
46 | CN(C)c1cccc2c(S(=O)(=O)NCC(=O)O)cccc12 |  |  | inactive
47 | COC1=CC23C=CC1[C@@H](c1ccccc1)C2=C(C)C(=O)N3C(=O)NC1CCCCC1 (stereo partly specified) | > 12.9 | > 12.9 | 
48 | O=C(NN1C(=O)C(Cl)C1c1ccccc1Cl)c1ccccc1O (stereo unspecified) | > 14.8 | > 14.8 | 
49 | COC(=O)c1cc2/c(=N/O)c3ccccc3sc2o1 | > 200 | > 200 | 
50 | Cn1c(=O)c(C2c3ccccc3Oc3c2c(=O)n(C)c2ccccc32)c(O)c2ccccc21 (stereo unspecified) | > 16.6 | > 16.6 | 
51 | O=[N+]([O-])c1ccc2c(c1)NC(O)C(O)N2 (stereo unspecified) | > 200 | 174 | 
52 | NC(=O)CNC(=O)c1ccccc1SC(=O)CC[n+]1ccccc1 | > 200 | 102 | 
53 | O=[N+]([O-])c1ccc2[nH]nc(OCc3ccccc3Cl)c2c1 | > 129 | > 129 | 
54 | Cc1cc(=O)n2nc(CSc3nnc(Sc4cc(O)ccc4O)s3)sc2n1 | > 200 | 28.8 | 
55 | CC(=O)Nc1ccc([As](=O)(O)O)cc1[N+](=O)[O-] | > 200 | > 200 | 
56 | CC1=NN(C(=O)Cc2ccccc2)C(=O)/C1=C\c1ccc([N+](=O)[O-])cc1 | > 53.7 | > 53.7 | 
57 | N#Cc1c(N)nc2c(c(-c3ccc(Cl)cc3)nn2-c2ccccc2)c1C#N | > 200 | > 200 | 
58 | CCOC(=O)N/N=C/c1cccs1 | > 200 | > 200 | 
59 | C=C1CC(COc2ccc3c(C)c(C)c(=O)oc3c2C)(c2ccccc2)OC1=O (stereo unspecified) | > 200 | 0.933 | 
60 | CS(=O)(=O)OCCN(CCOS(C)(=O)=O)c1ccc(C=O)cc1 | > 200 | 0.479 | 
61 | CCOC(=O)c1c(C)nc(C)c(C(=O)OCC)c1-c1ccc(N(C)C)cc1 | > 200 | 53.7 | 
62 | C=CC1CC1(CO)COc1cc(Cl)nc(N)n1 (stereo unspecified) | > 200 | 141 | 
63 | O=C1C2Cc3ccccc3CN2C(=O)N1CN1CCN(CN2C(=O)C3Cc4ccccc4CN3C2=O)CC1 (stereo unspecified) | > 10 | > 10 | 
